In PMC7763088, “Impact of Different Lipid Ligands on the Stability and IgE-Binding Capacity of the Lentil Allergen Len c 3” (Biomolecules, 2020):
Read-outs that look alike come from different tables or passages of the source.

Assays:
rLen c 3 [1] = molecular target: T1, rLen c 3 (Lens culinaris, UniProt A0AT29); parameters: method as in PMID 28266846; details: among saturated FAs; cited from earlier work
T1 construct: with the formation of the large fragment 1–80 and the protein without C-terminal Phe93; His8-TrxL (octahistidine-thioredoxin carrier) (N, cleaved yes); made in house; host or cells: Escherichia coli BL-21 (DE3)
T1 sequence (A0AT29 26-118): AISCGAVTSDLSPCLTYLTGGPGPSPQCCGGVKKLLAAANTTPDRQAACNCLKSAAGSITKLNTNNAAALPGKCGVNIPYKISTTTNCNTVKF

rLen c 3 [2] = molecular target: T1, rLen c 3; experiment: Effect of lipid ligands on gastrointestinal digestion of rLen c 3; format: in vitro ADME, lentil; details: for Effect of ligand on rLen c 3 degradation rate (proteolytic digestion): gastric then duodenal digestion
Procedure: (§1) Simulation of gastrointestinal digestion in vitro was performed as described in [15]. Briefly, gastric digestion was performed for 2 h, using 50 ng of pepsin (p) (Sigma) per 1 μg of rLen c 3 in 0.1 M HCl, pH 2.0 (final protein concentration 0.05 mM). For duodenal digestion, pH of the mixture resulting from gastric digestion was adjusted to 8.0 by addition of ammonium bicarbonate. The obtained mixture was incubated for 24 h at 37 °C with 2.5 ng of trypsin (t) (Promega, Madison, WI, USA) and 10 ng of α-chymotrypsin (ch) (Sigma) per 1 μg of the substrate. Degree of proteolysis was monitored by sodium dodecyl sulfate polyacrylamide gel electrophoresis (SDS-PAGE) under reducing conditions and reversed-phase high-performance liquid chromatography (RP-HPLC) on Luna C18 column (5 μm, 250 × 4.6 mm; Phenomenex, Torrance, CA, USA) at a flow rate of 0.5 mL/min, using a gradient of acetonitrile concentration from 5 to 65% for 45 min in 0.1% trifluoroacetic acid (TFA). Gel analysis was performed, using a densitometer. Electroblotting and subsequent N-terminal protein sequencing were performed as described. The protein was preheated at 100 °C for 30 min to study the effect of temperature on allergen stability. rLen c 3 was preloaded with various lipid ligands (LTP to lipid molar ratio 1:4) for 10 min, in order to investigate their effects on allergen resistance to proteolytic digest. As a control of the influence of lipid ligands on the work of proteolytic enzymes, the same reactions were carried out, using bovine α-casein (Sigma) as a substrate. Some independent experiments were performed in each case.

rLen c 3 [3] = molecular target: T1, rLen c 3; experiment: Effect of lipid ligands on secondary structure and thermostability of rLen c 3 (CD spectroscopy); format: physicochemical, lentil; details: for Effect of ligand on rLen c 3 thermostability (resistance to thermal denaturation): heating up to 98.5 °C; for Effect of ligand on rLen c 3 thermostability (resistance to thermal denaturation) / Recovery of rLen c 3 structure after cooling down in the presence of ligand: pH 7.4, ligand 1 mM; for Recovery of rLen c 3 structure after cooling down in the presence of ligand: cooling down to 20 °C after 98.5 °C
Procedure: Circular dichroism spectra were recorded at different temperatures, using a J-810 spectropolarimeter (Jasco, Hachioji, Tokyo, Japan) in a 0.1 cm path length quartz cell (Hellma GmbH & Co. KG, Mullheim, Germany) in the 190–250 nm range, and 0.2, using solutions of rLen c 3 in 10 mM phosphate buffer, pH 7.4, or 150 mM sodium chloride, pH 2.5, simulated gastric fluid, at a concentration of 17 µM. Fatty acids or lysolipids were added at a final concentration of 1 mM. Each experiment was performed twice, independently.

rLen c 3 [4] = molecular target: T1, rLen c 3; experiment: TNS displacement lipid binding assay; parameters: species or system lentil; details: for IC50: 25 °C, 4 μM TNS, 4 μM rLen c 3; for Change of rLen c 3 affinity for the ligand at acidic pH: pH 2.5 compared with pH 7.4
Procedure: The ability of rLen c 3 to bind lipids was assayed by monitoring the displacement of the fluorescent probe TNS. Fluorescence intensity was measured at 25 °C with a F-2710 spectrofluorimeter (Hitachi, Tokyo, Japan), using a […] slit width for both excitation (λ = 320 nm) and emission (λ = 437 nm) and the measurement taken for no longer than 1.5–2 s. After equilibrating TNS (4 μM) in 10 mM phosphate buffer, pH 7.4, or 150 mM sodium chloride, pH 2.5, for 2 min with gentle mixing, the 2 mM of competing ligand was titrated into the 2 mL of 4 μM rLen c 3 solution in 1 μL aliquots. The resulting data were fitted by using a sigmoidal curve-fitting in GraphPad Prism from which the concentration able to displace 50% of the TNS (IC50) was calculated. The dependence of the ligand binding on temperature was performed at 20, 40, 60, 90, and 20 °C, after cooling down as previously described. Temperature was checked with a temperature probe in the cuvette. Each experiment was performed in triplicate, independently.

pepsin = experiment: In vitro gastric digestion (SDS-PAGE); format: in vitro ADME; details: first 5 min; control substrate
Procedure: as §1, with “As a control of the influence of lipid ligands on the work of proteolytic enzymes, the same reactions were carried out, using bovine α-casein (Sigma) as a substrate. Some independent experiments were performed in each case.” left out

[5] = 10 mM phosphate buffer, pH 7.4, read-out: IC50 (TNS displacement)
[6] = 150 mM sodium chloride, pH 2.5, read-out: IC50 (TNS displacement)

Q: For `CCCCCCCCCCCCCCCCCCCCCC(=O)O` [BEH, behenic (docosanoic) acid], which “Binding capacity / affinity of Len c 3 for saturated fatty acids” value (rLen c 3 [1]) is on record?
A: lower affinity

Q: And the “Effect of ligand on rLen c 3 degradation rate (proteolytic digestion)” value (“Effect of ligand … (proteolytic digestion)” below) (rLen c 3 [2]; LTP to lipid molar ratio 1:4)?
A: slightly accelerated the allergen proteolysis

Q: What about the “Effect of ligand on rLen c 3 thermostability (resistance to thermal denaturation)” value (“Effect … (resistance to thermal denaturation)” below) (rLen c 3 [3]) of the same molecule?
A: slight protective effect

Q: What about the IC50 (rLen c 3 [4]; [5]) of the same molecule?
A: 5.9 ± 0.2 µM

Q: What about the IC50 (rLen c 3 [4]; [6]) of the same molecule?
A: 6.2 ± 0.1 µM

Q: Which results are given for `CCCCCCCCCCCC(=O)O` [LAU, lauric acid]?
A: Binding capacity / affinity of Len c 3 for saturated fatty acids (rLen c 3 [1]): highest binding capacities; Effect of ligand on rLen c 3 degradation rate (proteolytic digestion) (rLen c 3 [2]; LTP to lipid molar ratio 1:4): quickly digested by trypsin/chymotrypsin; Effect of ligand on rLen c 3 thermostability (resistance to thermal denaturation) (rLen c 3 [3]): slight protective effect; IC50 (rLen c 3 [4]; [5]): 2.1 ± 0.2 µM; IC50 (rLen c 3 [4]; [6]): 2.1 ± 0.01 µM; Change of rLen c 3 affinity for the ligand at acidic pH (rLen c 3 [4]): remained unchanged

Q: With `CCCCCCCCCCCCCCCC(=O)OC[C@@H](O)COP(=O)([O-])OCC[N+](C)(C)C` [LPPC, lyso-palmitoyl phosphatidylcholine] as the molecule, how does the “Effect of protein preheating before digestion in the presence of ligand on rate of allergen degradation” value (rLen c 3 [2]; after 4 and 24 h, effect more pronounced with LPPC) read?
A: slightly increased

Q: What about the “Effect of ligand … (proteolytic digestion)” value (rLen c 3 [2]; LTP to lipid molar ratio 1:4) of the same molecule?
A: to a lesser extent, LPPC slowed down the allergen degradation

Q: And the “Recovery of rLen c 3 structure after cooling down in the presence of ligand” value (rLen c 3 [3])?
A: recovery of the protein structure was not observed

Q: What about the “Effect … (resistance to thermal denaturation)” value (rLen c 3 [3]) of the same molecule?
A: a complete denaturation of the protein did not occur even at 98.5 °C

Q: And the “Effect of ligand on secondary structure of rLen c 3” value (rLen c 3 [3]; pH 7.4, 20 °C, ligand 1 mM)?
A: increased the percentage of α-helices

Q: And the IC50 (rLen c 3 [4]; [5])?
A: 7.7 ± 0.02 µM

Q: And the IC50 (rLen c 3 [4]; [6])?
A: 7.3 ± 0.01 µM

Q: What about the “Change of rLen c 3 affinity for the ligand at acidic pH” value (rLen c 3 [4]) of the same molecule?
A: slightly increased

Q: And the “Ability of rLen c 3 to bind the ligand after heating and cooling down” value (rLen c 3 [4]; pH 7.4, heated from 20 to 90 °C, then cooled down to 20 °C)?
A: not restored

Q: What does the source list for `CCCCCCCCCCCCCCCCCC(=O)O` [STE, stearic acid]?
A: Effect of ligand on rLen c 3 degradation rate (proteolytic digestion) (rLen c 3 [2]; LTP to lipid molar ratio 1:4): slowed down the allergen degradation; Recovery of rLen c 3 structure after cooling down in the presence of ligand (rLen c 3 [3]): partial protein renaturation; Effect of ligand on rLen c 3 thermostability (resistance to thermal denaturation) (rLen c 3 [3]): increased the rLen c 3 thermostability; IC50 (rLen c 3 [4]; IC50 (TNS displacement), 10 mM phosphate buffer, pH 7.4): 4.5 ± 0.1 µM; IC50 (rLen c 3 [4]; IC50 (TNS displacement), 150 mM sodium chloride, pH 2.5): 5.1 ± 0.1 µM; Change of rLen c 3 affinity for the ligand at acidic pH (rLen c 3 [4]): decreased

Q: With `CCCCCCCC/C=C\CCCCCCCC(=O)O` [OLE, oleic acid] as the molecule, how does the “Degradation of rLen c 3 in the presence of ligand” value (rLen c 3 [2]; 24 h of duodenal digestion, LTP to lipid molar ratio 1:4) read?
A: ~ 55%

Q: What about the “Effect of ligand … (proteolytic digestion)” value (rLen c 3 [2]; LTP to lipid molar ratio 1:4) of the same molecule?
A: more pronounced

Q: And the “Recovery of rLen c 3 structure after cooling down in the presence of ligand” value (rLen c 3 [3])?
A: partial protein renaturation

Q: And the “Effect … (resistance to thermal denaturation)” value (rLen c 3 [3])?
A: increased the rLen c 3 thermostability

Q: What about the IC50 (rLen c 3 [4]; [5]) of the same molecule?
A: 2.4 ± 0.1 µM

Q: And the IC50 (rLen c 3 [4]; [6])?
A: 2.6 ± 0.1 µM

Q: And the “Change of rLen c 3 affinity for the ligand at acidic pH” value (rLen c 3 [4])?
A: decreased

Q: With `CCCCCCCCCCCCCCCCCCCC(=O)O` [ARA, arachidic C20:0] as the molecule, how does the “Binding capacity / affinity of Len c 3 for saturated fatty acids” value (rLen c 3 [1]) read?
A: lower affinity

B1: bovine α-casein: bovine α-casein (Sigma), control substrate for proteolytic digestion (protein, UniProt P02662 16-214; P02663 16-222, looked up)
Alpha-S1-casein: RPKHPIKHQGLPQEVLNENLLRFFVAPFPEVFGKEKVNELSKDIGSESTEDQAMEDIKQMEAESISSSEEIVPNSVEQKHIQKEDVPSERYLGYLEQLLRLKKYKVPQLEIVPNSAEERLHSMKEGIHAQQKEPMIGVNQELAYFYPELFRQFYQLDAYPSGAWYYVPLGTQYTDAPSFSDIPNPIGSENSEKTTMPLW
Alpha-S2-casein: KNTMEHVSSSEESIISQETYKQEKNMAINPSKENLCSTFCKEVVRNANEEEYSIGSSSEESAEVATEEVKITVDDKHYQKALNEINQFYQKFPQYLQYLYQGPIVLNPWDQVKRNAVPITPTLNREQLSTSEENSKKTVDMESTEVFTKKTKLTEEEKNRLNFLKKISQRYQKFALPQYLKTVYQHQKAMKPWIQPKTKVIPYVRYL
Q: Which Degradation by pepsin (pepsin) does the source give for B1 here?
A: almost completely degraded
